From US12624109B2, “αv-integrin targeted small molecule drug conjugates” (TargetThera LLC, priority 2023, dated 2026)
Like-named read-outs stand apart in the source and are kept apart here.

Columns and labels:
[1] = system: human breast cancer MCF7 cells; experiment: In vitro cell viability assay (MTT), MCF7; type: cell-based
Description: [The source words this procedure for another cell line and reports this cell line under the same test.] The cell viability assay measures how effectively different compounds (i.e., different conjugates or structures) kill cancer cells in vitro. The IC50 value is the compound concentration at which the conjugate kills 50% of the cells, which inhibits 50% of the cells from remaining alive.
For the cell viability assay, the actual potency IC50 values depend on a number of factors, including the length of incubation time. Thus, the cell viability assay is particularly effective for determining the relative toxicity of different compounds.
(§1) Human glioblastoma cells (U87-luc) were seeded in 96-well plates ([…]) and were treated with the compounds of interest at concentrations 1, 3, 10, 30, and 100 µM. At the end of the experiments, the cell cultures were supplemented with MTT reagent (3-(4,5-dimethylthiazol-2-yl)-2,5-diphenyltetrazolium bromide) and incubated for an additional 4 hours. Then, dimethyl sulfoxide ([…]) was added to the cell culture to dissolve the formazan crystals and incubated for 10 minutes at room temperature. The absorbance rate of the cell cultures was read at 570 nm by using a Microplate Reader. All the reactions were performed in triplicate. Measured data of cellular proliferation were calculated using viability values of untreated control cells (100%).

[2] = system: human glioblastoma U87 cells; experiment: In vitro cell viability assay (MTT), U87; type: cell-based; conditions: for IC50: U87 cells; for cell viability result in words: U87 and MCF7 cells
Description: The cell viability assay measures how effectively different compounds (i.e., different conjugates or structures) kill cancer cells in vitro.
For the cell viability assay, the actual potency IC50 values depend on a number of factors, including the length of incubation time.
as §1

integrin αvβ3 receptor = target: T1, integrin αvβ3 receptor (Homo sapiens, UniProt P05106+P06756); experiment: In vitro integrin αvβ3 binding assay; conditions: immobilized integrin αvβ3; read-out: IC50, displacement of labelled integrin αvβ3 ligand
T1 construct: purchased ACRO Biosystems (Newark, DE) and/or Bioss Inc (Woburn, MA)
T1 sequence (P06756 31-992 limits assumed): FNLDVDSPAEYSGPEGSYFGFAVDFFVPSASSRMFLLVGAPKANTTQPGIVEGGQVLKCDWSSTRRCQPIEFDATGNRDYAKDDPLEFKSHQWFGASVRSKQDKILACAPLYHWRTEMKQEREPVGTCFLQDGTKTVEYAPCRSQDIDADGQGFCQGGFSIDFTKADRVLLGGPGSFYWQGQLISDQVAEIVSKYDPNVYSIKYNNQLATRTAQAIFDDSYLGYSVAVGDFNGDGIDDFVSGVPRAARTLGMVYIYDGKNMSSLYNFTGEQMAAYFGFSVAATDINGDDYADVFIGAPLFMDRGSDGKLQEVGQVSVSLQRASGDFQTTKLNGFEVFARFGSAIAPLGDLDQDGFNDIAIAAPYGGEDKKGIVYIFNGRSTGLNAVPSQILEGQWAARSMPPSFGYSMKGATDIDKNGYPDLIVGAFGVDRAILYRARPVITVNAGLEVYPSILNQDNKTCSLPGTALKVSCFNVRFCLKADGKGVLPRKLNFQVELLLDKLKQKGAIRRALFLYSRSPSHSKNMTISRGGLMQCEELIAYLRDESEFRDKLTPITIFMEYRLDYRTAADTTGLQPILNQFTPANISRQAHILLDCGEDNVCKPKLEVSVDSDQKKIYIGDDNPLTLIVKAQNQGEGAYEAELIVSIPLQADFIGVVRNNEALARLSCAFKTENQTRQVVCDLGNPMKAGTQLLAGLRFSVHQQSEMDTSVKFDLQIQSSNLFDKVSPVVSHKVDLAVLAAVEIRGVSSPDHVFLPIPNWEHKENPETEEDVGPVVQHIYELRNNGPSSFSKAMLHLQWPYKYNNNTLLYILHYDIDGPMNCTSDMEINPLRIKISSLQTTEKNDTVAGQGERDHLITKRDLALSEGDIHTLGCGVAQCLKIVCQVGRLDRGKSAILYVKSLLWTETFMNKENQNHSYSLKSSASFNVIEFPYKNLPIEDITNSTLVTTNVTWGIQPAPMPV
T1 sequence (P05106 27-718 limits assumed): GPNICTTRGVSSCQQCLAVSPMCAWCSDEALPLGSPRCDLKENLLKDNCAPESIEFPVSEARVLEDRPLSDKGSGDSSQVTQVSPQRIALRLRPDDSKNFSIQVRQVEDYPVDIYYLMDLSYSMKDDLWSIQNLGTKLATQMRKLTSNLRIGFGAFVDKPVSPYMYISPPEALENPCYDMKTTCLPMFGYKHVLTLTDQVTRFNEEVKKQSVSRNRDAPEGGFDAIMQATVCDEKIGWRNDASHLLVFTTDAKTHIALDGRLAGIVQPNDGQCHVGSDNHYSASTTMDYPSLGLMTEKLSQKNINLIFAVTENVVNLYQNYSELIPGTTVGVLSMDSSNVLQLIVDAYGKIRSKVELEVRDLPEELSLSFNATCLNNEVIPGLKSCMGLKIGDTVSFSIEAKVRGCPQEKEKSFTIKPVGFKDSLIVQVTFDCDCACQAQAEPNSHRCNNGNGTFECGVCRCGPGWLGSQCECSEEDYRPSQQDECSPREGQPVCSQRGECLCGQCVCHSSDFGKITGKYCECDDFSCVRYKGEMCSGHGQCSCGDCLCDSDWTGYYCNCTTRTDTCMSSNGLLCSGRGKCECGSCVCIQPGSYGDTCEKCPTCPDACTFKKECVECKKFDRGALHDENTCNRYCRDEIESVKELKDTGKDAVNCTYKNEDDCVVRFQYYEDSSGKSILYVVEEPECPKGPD
Description: The in vitro integrin αvβ3 binding assay measures the binding affinity for different compounds (i.e., different conjugates or structures) with immobilized integrin αvβ3 receptor. The IC50 value is the compound concentration at which the compound displaces 50% of a labelled integrin αvβ3 ligand from the integrin αvβ3 receptor, which inhibits 50% of the labelled integrin αvβ3 ligand from binding to the integrin αvβ3 receptor.
Ninety-six polystyrene microtiter plate was coated with fibrinogen and incubated at 4° C. overnight. The wells were blocked with 3% BSA for 2 hours at room temperature and were washed with buffer A (50 mM Tris/HCl, 100 mM NaCl, 1 mM CaCl2), 1 mM MgCl2, 1% BSA) three times. Integrins αvβ3 and increasing concentrations of the compound of interest were added and incubated for 2 hours at room temperature, and then wells were washed three times with buffer A and incubated with a streptavidin HRP conjugate (1:1000 in buffer A) for 1 hour at room temperature. Finally, wells were washed three times with buffer A and […] peroxidase substrate TMB was added, and the reaction was terminated after 30 minutes with 50 µL of 450 nm stop solution for TMB. Absorbance was determined at 450 nm with a Microplate Reader (Bio-Rad, Hercules, CA, USA). […]

CWR-R1ca-Luc cells = experiment: In vivo efficacy, prostate cancer tumors in nude mice; conditions: for average prostate cancer tumor volume: 0.5 mole of compound/kg mouse each day, subcutaneous, 3 weeks; for IVIS average photons (viable tumor tissue) / average prostate cancer tumor weight: at conclusion of 3 weeks, daily subcutaneous dosing
Description: (§2) The animal model and treatment used a total of 50 Athymic Nude-Foxn1^nu male mice which were purchased from Envigo, Indianapolis, IN, USA. The mice were housed in a clean room under strict conditions. Under the approval of the Institutional Animal Care and Use Committee, all animal protocols were carried out in line with the National Institute of Health Guide for the Care and Use of Laboratory Animals. Once cells reached 70-80% confluency, the cells were collected and counted. About 2×10^6 CWR-R1ca-Luc cells were mixed in 1:1 Matrigel® Matrix (Life Sciences, Tewksbury, MA) and injected subcutaneously into the flank of each mouse. Measurement of tumor volume of prostate cancer tumors of mice and mice weights were taken biweekly. When a palpable tumor developed, size 300-500 mm^3, mice were randomized into 10 groups with 5 mice in each group. The corresponding treatment was injected subcutaneously every day per each group up to 3 weeks. Before starting the treatment, the mice were injected with luciferin 150 mg/kg intraperitoneally. After 20 minutes, the mice were anesthetized in an induction chamber using 2% isoflurane, and bioluminescence images were taken using IVIS® Lumina III In Vivo Imaging System (PerkinElmer, Boston, MA) as a base line. Before the end of the experiment, the imaging process was repeated for all mice groups.
(§3) All compounds were dosed at 0.5 mole of compound/kg mouse each day. Thus, a 20 g mouse was dosed at […] of compound per day, and larger mice were dosed at correspondingly higher doses in proportionality to mouse body weight. […] The concentration of each formulation was adjusted so that each dose would be 10 μL solution/g mouse.
FIGS. 4A, 4B, 5, 6 and 7 all pertain to the same experiment conducted with mice having prostate cancer over a study period of three weeks.

[3] = Body weight of tumor-bearing mice (toxicity); type: in vivo; conditions: daily subcutaneous dosing; for toxicity indicated by body weight: 3 weeks; for average body weight: at conclusion of 3 weeks
Description: as §2, §3
FIG. 7 is a bar graph of average body weight of the mice at the conclusion of the study period of three weeks for conjugate 59, conjugate 61, conjugate 62, MMAE chemo, and PBS (control), in accordance with embodiments of the present invention. Average body weight changes over the course of the study relative to control, particularly due to loss of body weight, which can relate to toxicity of the treatment group.

[4] = Solubility in PBS on formulation; type: physicochemical; conditions: formulation for dosing
Description: as §3

[5] = system: integrin αvβ3 expressing U87 cells; experiment: In vitro cell adhesion assay (U87 cells to fibrinogen); type: cell-based, human; conditions: 2 h, read-out: IC50, inhibition of cell adhesion to fibrinogen
Description: The cell adhesion assay is a cell-based assay that measures how well different compounds (i.e., different conjugates or structures) block the adhesion of integrin αvβ3 expressing U87 cells to fibrinogen, a macromolecule that binds to the integrin αvβ3 receptor. The IC50 value is the compound concentration at which the compound displaces 50% of the cell adhesion to fibrinogen, which inhibits 50% of the cells from adhering to fibrinogen.
The cell adhesion assay is a functional cell assay, so the conjugates cannot be used with chemotherapy attached, because the conjugates will release the chemo over the course of the testing, killing the cells so that no readout can be obtained. Thus, the full conjugate molecule (targeting moiety, PEG, cleavable linker) is used without the chemo for this assay. Two compounds (conjugate 74 and conjugate 59) used are slightly different integrin αvβ3 targeting pieces with a large PEG (PEG 35 and PEG39, respectively), and the VCP cleavable linker attached. […]
96-well microtiter plates were coated with up to […] fibrinogen per well in […] phosphate-buffered saline (PBS) and incubated at 4° C. overnight. […] After washing with PBS, the fluorescence intensity of adherent cells was measured at an emission wavelength of 530 nm using an excitation wavelength of 485 nm by using a Microplate Reader.

## Nc1ccn([C@@H]2O[C@H](CO)[C@@H](O)C2(F)F)c(=O)n1 [Gemcitabine, reference compound]
[1]; Homo sapiens
  IC50: 1790 nM

## CCc1c2c(nc3ccc(O)cc13)-c1cc3c(c(=O)n1C2)COC(=O)[C@]3(O)CC [SN38, reference compound]
[2]; Homo sapiens, U-87 MG
  IC50: 4.32 nM
[1]; Homo sapiens
  IC50: 5.67 nM

## CCc1c2c(nc3ccc(O)cc13)-c1cc3c(c(=O)n1C2)COC(=O)[C@@]3(CC)OC(=O)N(C)CCN(C)C(=O)OCc1ccc(NC(=O)[C@H](CCCNC(N)=O)NC(=O)[C@@H](NC(=O)CCc2cn(CCOCCOCCOCCOCCOCCOCCOCCOCCOCCOCCOCCOCCOCCOCCOCCOCCOCCOCCOCCOCCOCCOCCOCCOCCOCCOCCOCCOCCOCCOCCOCCOCCOCCOCCOCCOC)nn2)C(C)C)cc1 [conjugate 73]
[2]
  cell viability result in words: no activity
  IC50: > 10000 nM
[1]
  IC50: > 10000 nM

## CC(C)[C@H](NC(=O)CCc1cn(CCOCCOCCOCCOCCOCCOCCOCCOCCOCCOCCOCCOCCOCCOCCOCCOCCOCCOCCOCCOCCOCCOCCOCCOCCOCCOCCOCCOCCOCCOCCOCCOCCOCCOCCOCCNC(=O)CCC(NS(=O)(=O)c2ccccc2)C(=O)O)nn1)C(=O)N[C@@H](CCCNC(N)=O)C(=O)Nc1ccc(COC(=O)Nc2ccn([C@@H]3O[C@H](CO)C(O)C3(F)F)c(=O)n2)cc1 (some centres unmarked) [conjugate 45]
Integrin αvβ3 receptor
  IC50: 0.84 ± 0.16 nM
[1]
  IC50: 3970 nM

## CC[C@H](C)[C@@H]([C@@H](CC(=O)N1CCC[C@H]1[C@H](OC)[C@@H](C)C(=O)N[C@H](C)[C@@H](O)c1ccccc1)OC)N(C)C(=O)[C@@H](NC(=O)[C@H](C(C)C)N(C)C(=O)OCc1ccc(NC(=O)[C@H](CCCNC(N)=O)NC(=O)[C@@H](NC(=O)CCOCCOCCOCc2cn(CCOCCOCCOCCOCCOCCOCCOCCOCCOCCOCCOCCOCCOCCOCCOCCOCCOCCOCCOCCOCCOCCOCCOCCOCCOCCOCCOCCOCCOCCOCCOCCOCCOCCOCCOCCOCCC(=O)NC[C@H](NS(=O)(=O)c3ccccc3)C(=O)O)nn2)C(C)C)cc1)C(C)C [conjugate 61]
CWR-R1ca-Luc cells
  average prostate cancer tumor volume: inhibits tumor growth more than the PEG15 conjugate 62
  IVIS average photons (viable tumor tissue): much smaller than the smaller PEG15 conjugate 62 and MMAE alone
  average prostate cancer tumor weight: comparable to the smaller PEG15 MMAE conjugate 62
[3]
  toxicity indicated by body weight: mild toxicity
  average body weight: only a small difference compared to the PBS control

## NC(=O)c1cccc2cn(-c3ccc([C@@H]4CCCNC4)cc3)nc12 [Niraparib, reference compound]
[2]; Homo sapiens, U-87 MG
  IC50: 155 nM

## CC[C@H](C)[C@@H](C(CC(=O)N1CCC[C@H]1[C@H](OC)[C@@H](C)C(=O)N[C@H](C)[C@@H](O)c1ccccc1)OC)N(C)C(=O)[C@@H](NC(=O)[C@@H](NC)C(C)C)C(C)C (some centres unmarked) [MMAE, monomethylauristatin E, reference compound]
[2]; Homo sapiens, U-87 MG
  IC50: 2.51 nM
[1]; Homo sapiens
  IC50: 3.85 nM
CWR-R1ca-Luc cells
  average prostate cancer tumor volume: smaller tumor volumes than the non-MMAE conjugate 59
  IVIS average photons (viable tumor tissue): smaller IVIS® numbers than the non-MMAE conjugate 59
  average prostate cancer tumor weight: smaller tumor weights than the non-MMAE conjugate 59
[3]
  toxicity indicated by body weight: high toxicity
  average body weight: a loss of body weight over the course of the experiment
[4]
  solubility in straight PBS: less soluble in straight PBS

## CC(C)[C@H](NC(=O)CCOCCOCCOCc1cn(CCOCCOCCOCCOCCOCCOCCOCCOCCOCCOCCOCCOCCOCCOCCOCCOCCOCCOCCOCCOCCOCCOCCOCCOCCOCCOCCOCCOCCOCCOCCOCCOCCOCCOCCOCCOCCC(=O)NC[C@H](NS(=O)(=O)c2ccccc2)C(=O)O)nn1)C(=O)N[C@@H](CCCNC(N)=O)C(=O)Nc1ccc(CO)cc1 [conjugate 59]
[5]
  IC50: 103 ± 1.7 nM

## CC(C)[C@H](NC(=O)CCc1cn(CCOCCOCCOCCOCCOCCOCCOCCOCCOCCOCCOCCOCCOCCOCCOCCOCCOCCOCCOCCOCCOCCOCCOCCOCCOCCOCCOCCOCCOCCOCCOCCOCCOCCOCCOCCNC(=O)CC[C@H](NS(=O)(=O)c2ccccc2)C(=O)O)nn1)C(=O)N[C@@H](CCCNC(N)=O)C(=O)Nc1ccc(CO)cc1 [conjugate 74]
[5]
  IC50: 54 ± 2.2 nM
[2]
  cell viability result in words: does not cause cell death
  IC50: > 10000 nM
[1]
  IC50: > 10000 nM

## CC(C)[C@H](NC(=O)CCc1cn(CCOCCOCCOCCOCCOCCOCCOCCOCCOCCOCCOCCOCCOCCOCCOCCOCCOCCOCCOCCOCCOCCOCCOCCOCCOCCOCCOCCOCCOCCOCCOCCOCCOCCOCCOCCNC(=O)CC[C@H](NS(=O)(=O)c2ccccc2)C(=O)O)nn1)C(=O)N[C@@H](CCCNC(N)=O)C(=O)Nc1ccc(COC(=O)N2CCCC(c3ccc(-n4cc5cccc(C(N)=O)c5n4)cc3)C2)cc1 (some centres unmarked) [conjugate 40]
Integrin αvβ3 receptor
  IC50: 3.36 ± 0.22 nM
[2]
  IC50: 1740 nM
